The values that follow come from ChEMBL document CHEMBL1201862, “PubChem BioAssay data set” (2004).

Some test systems named below: HCT-116; OVCAR-8; SK-OV-3; MDA-MB-231; RPMI-8226; CAKI-1; HCT-15; NCI/ADR-RES; MOLT-4; UO-31; OVCAR-3; Malme-3M; SF-295; U-251; OVCAR-5; NCI-H226; SW-620; HT-29; HL-60.
Assay in all cases: inhibition of tumour cell growth, NCI panel, 48 h

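Following 48 hours of exposure in 96-well plates, responses at five concentrations were used to interpolate endpoints linearly. GI50 = concentration required for 50% inhibition of growth.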 Activity calls are given as the source filed them. Cut-off read from the data, not from the text of the source: active = GI50 up to about 1.1 µM and inactive = higher.

In the case of `CN(C)Cc1ccc(O)c(CN(C)C)n1`, the GI50 in the assay with HCT-116, with OVCAR-8, in the assay with SK-OV-3, with MDA-MB-231, in the assay on RPMI-8226 and in the assay on CAKI-1 was > 100 µM (inactive) throughout. Further, the GI50 in the assay with HCT-15 was greater than 100 µM; in the assay with NCI/ADR-RES it was > 100 µM (inactive); with MOLT-4, > 100 µM (inactive); in the assay with UO-31 it was > 100 µM (inactive); in the assay on OVCAR-3 it was > 100 µM (inactive); in the assay with Malme-3M, > 100 µM (inactive). For the same molecule, the GI50 in the assay with SF-295, with U-251, in the assay with OVCAR-5, with NCI-H226, in the assay on SW-620 and in the assay with HT-29 was > 100 µM (inactive) throughout.

For the molecule `COc1cc2c(cc1OC)C1Cc3ccccc3CN1CCC2` (stereo not drawn), the GI50 in the assay on HCT-116 was 91.6 µM (inactive); in the assay with OVCAR-8, > 100 µM (inactive); with SK-OV-3, > 100 µM (inactive); in the assay with MDA-MB-231 it was > 100 µM (inactive); in the assay on CAKI-1, > 100 µM (inactive); in the assay on HCT-15 it was greater than 100 µM. Also, the GI50 in the assay on NCI/ADR-RES is > 100 µM (inactive); in the assay with MOLT-4, 67.6 µM (inactive); in the assay on OVCAR-3 it was > 100 µM (inactive); with Malme-3M it was > 100 µM (inactive); in the assay with SF-295, > 100 µM (inactive); with U-251, > 100 µM (inactive). Moreover, the GI50 in the assay on OVCAR-5 was > 100 µM (inactive); in the assay on NCI-H226, 90.6 µM (inactive); in the assay on SW-620, > 100 µM (inactive); with HT-29 it was 66.8 µM (inactive).

As to `Cc1cc(S(=O)(=O)Nc2nc(N)n[nH]2)c(SCC(=O)O)cc1Cl`, the GI50 in the assay with HCT-116, in the assay with OVCAR-8, with SK-OV-3, in the assay on RPMI-8226, in the assay with HL-60 and with CAKI-1 was > 10 µM (inactive) each time. In addition, the GI50 with HCT-15 is greater than 10 µM; with NCI/ADR-RES, > 10 µM (inactive); with MOLT-4, > 10 µM (inactive); with UO-31, > 10 µM (inactive); in the assay with OVCAR-3, > 10 µM (inactive); in the assay on Malme-3M, > 10 µM (inactive). Further, the GI50 in the assay on SF-295, with U-251, in the assay on OVCAR-5, with NCI-H226, with SW-620 and in the assay with HT-29 was > 10 µM (inactive) each time.

For `CC1(C)CC2C(=O)c3ccccc3NC2c2ccccc21` (stereo not drawn), the GI50 in the assay on HCT-116 was 2.99 µM (inactive); in the assay with OVCAR-8, 5.96 µM (inactive); with RPMI-8226, 2.54 µM (inactive); with HL-60, 2.11 µM (inactive); in the assay with CAKI-1, 6.32 µM (inactive); in the assay with HCT-15, 3.6 µM. In addition, the GI50 is 3.49 µM (inactive) with NCI/ADR-RES; 0.735 µM (active) in the assay on MOLT-4; 6.03 µM (inactive) with UO-31; 4.29 µM (inactive) in the assay with OVCAR-3; 4.99 µM (inactive) in the assay with Malme-3M; 1.84 µM (inactive) with SF-295. The GI50 is 5.47 µM (inactive) with U-251; > 26.2 µM (inactive) in the assay on OVCAR-5; 11.9 µM (inactive) in the assay with NCI-H226; 3.9 µM (inactive) in the assay with SW-620; 3.48 µM (inactive) in the assay with HT-29.

As to `O=c1c2cc3c(=O)n4c(cc(-c5ccccc5)c5cc(Cl)ccc54)nc3cc2nc2cc(-c3ccccc3)c3cc(Cl)ccc3n12`, the GI50 in the assay on HCT-116 is > 100 µM (inactive); in the assay with OVCAR-8 it was > 100 µM (inactive); with SK-OV-3, > 100 µM (inactive); in the assay with MDA-MB-231, 39.4 µM (inactive); in the assay on RPMI-8226, > 100 µM (inactive); in the assay with CAKI-1, > 100 µM (inactive). The GI50 is greater than 100 µM in the assay with HCT-15; > 100 µM (inactive) with NCI/ADR-RES; > 100 µM (inactive) with MOLT-4; 37.8 µM (inactive) in the assay with UO-31; > 100 µM (inactive) with OVCAR-3; > 100 µM (inactive) in the assay with SF-295. In addition, the GI50 in the assay with U-251 was 52.4 µM (inactive); in the assay with OVCAR-5, > 100 µM (inactive); with NCI-H226, > 100 µM (inactive); with SW-620 it was > 100 µM (inactive); in the assay with HT-29, > 100 µM (inactive).

Turning to `COc1cc(C(=O)NNC(=O)c2cc(Br)ccc2NC(=O)c2cccs2)cc(OC)c1OC`, the GI50 in the assay with HCT-116 is 18.7 µM (inactive); with OVCAR-8, 19.1 µM (inactive); in the assay on SK-OV-3, 9.16 µM (inactive); in the assay with RPMI-8226, 13.2 µM (inactive); with HL-60 it was 14.8 µM (inactive); in the assay with CAKI-1, 29 µM (inactive). For the same molecule, the GI50 in the assay with HCT-15 was 15.5 µM; in the assay with NCI/ADR-RES, 18.5 µM (inactive); with MOLT-4 it was 27.1 µM (inactive); in the assay on UO-31, 14.4 µM (inactive); with OVCAR-3 it was 24.2 µM (inactive); in the assay with Malme-3M, 23.2 µM (inactive). In addition, the GI50 in the assay on SF-295 is 19.1 µM (inactive); with U-251, 17.1 µM (inactive); in the assay on OVCAR-5, 16.4 µM (inactive); with NCI-H226, 13.7 µM (inactive); with SW-620, 28.1 µM (inactive); in the assay on HT-29, 19.5 µM (inactive).

With `Cc1n[n+]([O-])c(C)cc1[N+](=O)[O-]`, the GI50 in the assay with HCT-116 is 16.1 µM (inactive); in the assay on OVCAR-8, 15.5 µM (inactive); with SK-OV-3, 93.8 µM (inactive); in the assay with MDA-MB-231, 18.2 µM (inactive); in the assay on RPMI-8226, 0.552 µM (active); with HCT-15 it was 15.9 µM. Besides, the GI50 with NCI/ADR-RES is 20.6 µM (inactive); in the assay with UO-31 it was 16.2 µM (inactive); in the assay with OVCAR-3, 14.5 µM (inactive); in the assay with Malme-3M it was 20.9 µM (inactive); in the assay on U-251, 22.4 µM (inactive); in the assay on OVCAR-5, 19.5 µM (inactive). For the same molecule, the figures for the GI50 in the assay on NCI-H226, with SW-620 and with HT-29 were 26.9 µM (inactive), 15 µM (inactive) and 14.1 µM (inactive), respectively.

Consider `CC(=O)OC1=CC2=CC[C@H]3[C@@H]4CCC(=O)[C@@]4(C)CC(=O)[C@]3(S)[C@@]2(C)CC1`, for which the GI50 is 21.7 µM (inactive) with HCT-116; 31.3 µM (inactive) with OVCAR-8; 65.6 µM (inactive) in the assay with SK-OV-3; 26 µM (inactive) in the assay with MDA-MB-231; 20.9 µM (inactive) in the assay on RPMI-8226; 35.2 µM (inactive) in the assay with CAKI-1. Besides, the GI50 in the assay with HCT-15 was 34.2 µM; with NCI/ADR-RES, 75.7 µM (inactive); with MOLT-4, 17.4 µM (inactive); with UO-31, 51.1 µM (inactive); with OVCAR-3, 22.7 µM (inactive); in the assay on Malme-3M, 22.8 µM (inactive). Moreover, the GI50 with SF-295 was 48.4 µM (inactive); in the assay on U-251, 29.6 µM (inactive); in the assay on OVCAR-5, > 100 µM (inactive); in the assay on SW-620, 31.6 µM (inactive); in the assay on HT-29 it was > 100 µM (inactive).

In the case of `CNC(=O)Nc1cc2c3c(c1)CCCN3CCC2`, the GI50 with HCT-116, in the assay on OVCAR-8, in the assay on SK-OV-3, in the assay on MDA-MB-231, in the assay with RPMI-8226 and in the assay with CAKI-1 was > 10 µM (inactive) each time. Moreover, the GI50 is greater than 10 µM in the assay on HCT-15; > 10 µM (inactive) with NCI/ADR-RES; > 10 µM (inactive) in the assay on OVCAR-3; > 10 µM (inactive) with Malme-3M; > 10 µM (inactive) with SF-295; > 10 µM (inactive) in the assay with U-251. For the same molecule, the GI50 in the assay on OVCAR-5, with NCI-H226, with SW-620 and with HT-29 was > 10 µM (inactive) throughout.

For the molecule `C/C(O)=C/C(=O)c1[nH]c(C(=O)O)cc1C1CCN(Cc2ccccc2)C1=O` (stereo not drawn), the GI50 is 24.3 µM (inactive) with HCT-116; 19.1 µM (inactive) in the assay with OVCAR-8; 22.8 µM (inactive) in the assay with SK-OV-3; 33.2 µM (inactive) in the assay on MDA-MB-231; 20.7 µM (inactive) in the assay with RPMI-8226; 42.3 µM (inactive) in the assay with CAKI-1. Moreover, the GI50 with HCT-15 was 11 µM; with NCI/ADR-RES, 12 µM (inactive); with MOLT-4, 20 µM (inactive); in the assay on UO-31, 14.2 µM (inactive); with OVCAR-3, 21.7 µM (inactive); in the assay with Malme-3M, 20 µM (inactive). The GI50 is 17.9 µM (inactive) in the assay with SF-295; 34.2 µM (inactive) in the assay on U-251; 25.2 µM (inactive) in the assay with OVCAR-5; 29.5 µM (inactive) in the assay on SW-620; 29.2 µM (inactive) in the assay on HT-29.

For the molecule `Cn1cnc([N+](=O)[O-])c1[Se]c1ncnc2nc[nH]c12`, the GI50 in the assay with HCT-116 was 2.34 µM (inactive); in the assay with OVCAR-8, 8.79 µM (inactive); with SK-OV-3 it was 15.4 µM (inactive); in the assay with MDA-MB-231 it was 5 µM (inactive); in the assay with RPMI-8226, 5.01 µM (inactive); with CAKI-1, 0.925 µM (active). The GI50 in the assay on HCT-15 was 15.6 µM; in the assay on NCI/ADR-RES it was 2.07 µM (inactive); in the assay on MOLT-4, 4.71 µM (inactive); in the assay on UO-31 it was 3.65 µM (inactive); in the assay with OVCAR-3, 2 µM (inactive); in the assay with Malme-3M, 3.72 µM (inactive). For the same molecule, the GI50 was 4.21 µM (inactive) in the assay on SF-295; 4.6 µM (inactive) in the assay on U-251; 11.4 µM (inactive) in the assay with OVCAR-5; 10.5 µM (inactive) in the assay with NCI-H226; 10.3 µM (inactive) in the assay on SW-620; 10 µM (inactive) in the assay with HT-29.

Take `COC(=O)c1cc(/C=C\c2cc(OC)ccc2OC)ccc1OC`: the GI50 with HCT-116 is 32.4 µM (inactive); with OVCAR-8, 36.4 µM (inactive); in the assay with SK-OV-3 it was 37.3 µM (inactive); in the assay on MDA-MB-231, 34.4 µM (inactive); in the assay with RPMI-8226, 18.4 µM (inactive); in the assay on CAKI-1 it was 33.3 µM (inactive). For the same molecule, the GI50 with HCT-15 is 33.2 µM; in the assay on NCI/ADR-RES it was 37.3 µM (inactive); in the assay with MOLT-4, 6.75 µM (inactive); in the assay with UO-31, 30.3 µM (inactive); in the assay with OVCAR-3, 24.4 µM (inactive); with SF-295 it was 30.8 µM (inactive). For the same molecule, the GI50 in the assay with U-251 is 32.3 µM (inactive); in the assay with OVCAR-5, 39.4 µM (inactive); in the assay on SW-620, 38.9 µM (inactive); in the assay on HT-29 it was 25.6 µM (inactive).
